Experiment [1] relates to rabbit progesterone receptor (rbPR) and glucocorticoid receptor (rbGR). In words: Receptor-binding assays, ratio of relative binding affinities rbPR/rbGR. To be noted: ratio of relative binding affinities (RBA = EC50 of standard/EC50 of test compound x 100) for rbPR and rbGR. The protocol: Certain antiprogestins were tested in receptor-binding assays for their ability to bind rabbit progesterone receptor (rbPR) and glucocorticoid receptor (rbGR). Briefly, cytosol containing PR or GR were prepared in TEGMD buffer (10 mM Tris, pH 7.2, 1.5 mM EDTA, 0.2 mM sodium molybdate, 10% glycerol, 1 mM DTT) from uterus or thymus, respectively, of estradiol-primed immature rabbits. For PR binding, the cytosol was incubated with 6 nM 1,2-[^3H]progesterone (50.0 Ci/mmole) and competitors were added at concentrations from 2 to 100 nM. For binding to GR, the cytosol was incubated with 6 nM 6,7-[^3H]-dexamethasone (40 Ci/mmol) and test compounds were added at concentrations from 20 to 100 nM. After overnight incubation at 4 C, bound and unbound [^3H] steroids were separated by addition of dextran-coated charcoal and centrifugation at 2100×g for 15 min at 4 C. Supernatants containing the [3H]-steroid receptor complexes were decanted into vials containing 4 ml Optifluor (Packard Instrument Co.), vortexed, equilibrated in a liquid scintillation counter for 30 minutes and then counted for 2 minutes. The EC50 (Effective Concentration) for each standard curve and each of the compound curves was determined by entering the counting data into a four parameter sigmoidal computer program (RiaSmart® Immunoassay Data Reduction Program, Packard Instrument Co., Meriden, Conn.). Relative binding affinity (RBA) for each compound was calculated using the following equation: EC50 of standard/EC50 of test compound×100. The standards for the PR and GR assays were unlabeled progesterone and dexamethasone, respectively. The results of these experiments are summarized in Table 1, as a ratio of the relative binding affinities of each compound for the rbPR and rbGR receptors (rbPR/rbGR).

In experiment [2] the test system is progesterone-induced endometrial glandular proliferation in rabbit uterus. In words: anti-McGinty and anti-Clauberg assays in the rabbit uterus. The experiment is classed as in vivo. To be noted: average of anti-McGinty and anti-Clauberg results relative to CDB-2914 (=1.00). From the text: Also given in Table 1 are the relative biological activities of the same compounds in the rabbit uterus by the anti-McGinty and anti-Clauberg assays. Compound CDB-2914 (listed at the end of the Table) was used as the control or reference compound (rabbit Biological Activity=1.00) for these experiments because results of experiments using CDB-2914 have been published before (Hild-Petito et al., 1996; Passaro et al., 1997; Reel et al., 1998; Lamer et al., 2000). For the anti-McGinty test, immature female rabbits received a subcutaneous injection of 5 μg estradiol in 10% ethanol/sesame oil daily for 6 consecutive days. On day 7, animals underwent sterile abdominal surgery to ligate a 3-4 cm segment of both uterine horns. The test compound in appropriate solvent was injected intraluminally into the ligated segment of one uterine horn and vehicle alone into the other. A stimulating dose of progesterone (267 μg/day) was administered subcutaneously to each rabbit daily for the next three days to induce endometrial proliferation. All animals were sacrificed at day 10 for removal of the uterus where a segment central to the ligatures was removed and fixed in 10% neutral buffered formalin and submitted for histological processing. Five micron sections stained with hematoxylin and cosin were evaluated microscopically for the degree of endometrial glandular proliferation. The percent inhibition of endometrial proliferation for each rabbit was calculated and the mean of the group of five animals recorded. For the Anti-Clauberg test, immature female rabbits received a subcutaneous injection of 5 μg estradiol in 10% ethanol/sesame oil daily for 6 consecutive days. On day 7, animals received progesterone by subcutaneous injection (160 μg/day) and the experimental compound in appropriate vehicle orally or subcutaneously for five consecutive days. One group of rabbits received progesterone only. Twenty-four hours after the last dose, all animals were sacrificed for removal of the uterus which was cleaned of all fat and connective tissue, weighed to the nearest 0.2 mg and placed in 10% neutral buffered formalin for subsequent histological processing. Five micron sections stained with hematoxylin and eosin were evaluated microscopically for the degree of endometrial glandular proliferation. The percent inhibition of endometrial proliferation at each dose level of the test compound was derived by comparison with progesterone-stimulated animals alone. The data presented in Table 1 (rabbit Biol. Act.) reflects the average of the results obtained for each compound by the anti-McGinty and anti-Clauberg assays relative to CDB-2914.

Take “2 11-(Cyp*-hydroxy)-17α-acetoxy-11β-(4 N,N-dimethylaminophenyl)-19-norpregna-4,9-diene-3,20-dione [CDB-4125]”: the rbPR/rbGR in experiment [1] is given as 1.19. Also, the “rabbit Biol. Act.” value in experiment [2] is 1.55. On the same counts, the results for “21-BMD-17α-acetoxy-11β-(4 N,N-dimethylaminophenyl)-19-norpregna-4,9-diene-3,20-dione [CDB-4111]” are 1.30 and 0.36.

Consider “21-methoxyacetyl-17α-acetoxy-11β-(4 N,N-dimethylaminophenyl)-19-norpregna-4,9-diene-3,20-dione [CDB-4362]”, for which the rbPR/rbGR in experiment [1] turned out to be 4.74. For the same molecule, the “rabbit Biol. Act.” value in experiment [2] is 1.25. Turning to `CCC(=O)[C@@]1(OC(C)=O)CCC2C3CCC4=CC(=O)CCC4=C3C(c3ccc(N(C)C)cc3)C[C@@]21C` (stereo partly drawn) [CDB-4030, 21-methyl-17α-acetoxy-11β-(4 N,N-dimethylaminophenyl)-19-norpregna-4,9-diene-3,20-dione], in experiment [1], the rbPR/rbGR amounted to 0.96. The “rabbit Biol. Act.” value in experiment [2] was 0.30. With `CC(=O)O[C@]1(C(=O)CBr)CCC2C3CCC4=CC(=O)CCC4=C3C(c3ccc(N(C)C)cc3)C[C@@]21C` (stereo partly drawn) [CDB-4031, 21-bromine-17α-acetoxy-11β-(4 N,N-dimethylaminophenyl)-19-norpregna-4,9-diene-3,20-dione], in experiment [1], the rbPR/rbGR is given as 0.69. Further, in experiment [2], the “rabbit Biol. Act.” value was found to be 0.70. Consider `CC(=O)O[C@]1(C(=O)CF)CCC2C3CCC4=CC(=O)CCC4=C3C(c3ccc(N(C)C)cc3)C[C@@]21C` (stereo partly drawn) [CDB-4058, 21-flourine-17α-acetoxy-11β-(4 N,N-dimethylaminophenyl)-19-norpregna-4,9-diene-3,20-dione], for which the rbPR/rbGR in experiment [1] came to 1.08. In experiment [2], the “rabbit Biol. Act.” value was found to be 0.90. Consider `CC(=O)O[C@]1(C(=O)C[S+](C)[O-])CCC2C3CCC4=CC(=O)CCC4=C3C(c3ccc(N(C)C)cc3)C[C@@]21C` (stereo partly drawn) [CDB-4101, 21-methoxythio-17α-acetoxy-11β-(4 N,N-dimethylaminophenyl)-19-norpregna-4,9-diene-3,20-dione], for which the rbPR/rbGR in experiment [1] is 0.61. The “rabbit Biol. Act.” value in experiment [2] is given as 0.65. On the same counts, the results for `CC(=O)O[C@]1(C2COC(C)(C)O2)CCC2C3CCC4=CC(=O)CCC4=C3C(c3ccc(N(C)C)cc3)C[C@@]21C` (stereo partly drawn) [CDB-4110, 21-acetonide-17α-acetoxy-11β-(4 N,N-dimethylaminophenyl)-19-norpregna-4,9-diene-3,20-dione] are 0.70 and 0.10. On the same counts, the results for `CC(=O)O[C@]1(C(=O)CSC(C)=O)CCC2C3CCC4=C(C(=O)c5ccccc5)C(=O)CCC4=C3C(c3ccc(N(C)C)cc3)C[C@@]21C` (stereo partly drawn) [CDB-4119, 4-benzoin-21-acetylthio-17α-acetoxy-11β-(4 N,N-dimethylaminophenyl)-19-norpregna-4,9-diene-3,20-dione] are 2.60 and 0.10. Turning to `CC(=O)O[C@]1(C(=O)CO)CCC2C3CCC4=CC(=O)CCC4=C3C(c3ccc(N(C)C)cc3)C[C@@]21C` (stereo partly drawn) [CDB-4152, 21-hydroxy-17α-acetoxy-11β-(4 N,N-dimethylaminophenyl)-19-norpregna-4,9-diene-3,20-dione], the rbPR/rbGR in experiment [1] stood at 0.82. In experiment [2], the “rabbit Biol. Act.” value came to 1.40.

For the molecule `CCOCC(=O)[C@@]1(OC(C)=O)CCC2C3CCC4=CC(=O)CCC4=C3C(c3ccc(N(C)C)cc3)C[C@@]21C` (stereo partly drawn) [CDB-4167, 21-ethyloxy-17α-acetoxy-11β-(4 N,N-dimethylaminophenyl)-19-norpregna-4,9-diene-3,20-dione], the rbPR/rbGR in experiment [1] was determined as 1.69. Besides, in experiment [2], the “rabbit Biol. Act.” value worked out at 1.50. As to `COCC(=O)C1(OC(C)=O)CCC2C3CCC4=CC(=NO)CCC4=C3C(c3ccc(N(C)C)cc3)C[C@@]21C` (stereo partly drawn) [CDB-4205, 3-hydroxyamino-2 1-methoxy-17α-acetoxy-11β-(4 N,N-dimethylaminophenyl)-19-norpregna-4,9-diene-3,20-dione], the rbPR/rbGR in experiment [1] amounted to 1.99. Besides, the “rabbit Biol. Act.” value in experiment [2] is reported as 1.00. On the same counts, the results for `CC(=O)OCC(=O)C1(OC(C)=O)CCC2C3CCC4=CC(=NO)CCC4=C3C(c3ccc(N(C)C)cc3)C[C@@]21C` (stereo partly drawn) [CDB-4206, 3-hydroxyamino-21-acetoxy-17α-acetoxy-11β-(4 N,N-dimethylaminophenyl)-19-norpregna-4,9-diene-3,20-dione] are 1.44 and 0.68.

Consider `CSCC(=O)[C@@]1(OC(C)=O)CCC2C3CCC4=CC(=O)CCC4=C3C(c3ccc(N(C)C)cc3)C[C@@]21C` (stereo partly drawn) [CDB-4223, 21-methylthio-17α-acetoxy-11β-(4 N,N-dimethylaminophenyl)-19-norpregna-4,9-diene-3,20-dione], for which, in experiment [1], the rbPR/rbGR turned out to be 1.17. In the case of `CCOCC(=O)C1(OC(C)=O)CCC2C3CCC4=CC(=NO)CCC4=C3C(c3ccc(N(C)C)cc3)C[C@@]21C` (stereo partly drawn) [CDB-4226, 3-hydroxyamino-21-ethyloxy-17α-acetoxy-11β-(4 N,N-dimethylaminophenyl)-19-norpregna-4,9-diene-3,20-dione], the rbPR/rbGR in experiment [1] amounted to 1.51. Further, the “rabbit Biol. Act.” value in experiment [2] was found to be 0.54. Regarding `COCC(=O)[C@@]1(OC(C)=O)CCC2C3CCC4=C(C(=O)c5ccccc5)C(=O)CCC4=C3C(c3ccc(N(C)C)cc3)C[C@@]21C` (stereo partly drawn) [CDB-4239, 4-benzoin-21-methoxy-17α-acetoxy-11β-(4 N,N-dimethylaminophenyl)-19-norpregna-4,9-diene-3,20-dione], the rbPR/rbGR in experiment [1] was 14.80. The “rabbit Biol. Act.” value in experiment [2] is 0.60.

Regarding `CCC(=O)OCC(=O)[C@@]1(OC(C)=O)CCC2C3CCC4=CC(=O)CCC4=C3C(c3ccc(N(C)C)cc3)C[C@@]21C` (stereo partly drawn) [CDB-4247, 21-propio[1]nyloxy-17α-acetoxy-1 1β-(4 N,N-dimethylaminophenyl)-19-norpregna-4,9-diene-3,20-dione], the rbPR/rbGR in experiment [1] was determined as 2.06. In experiment [2], the “rabbit Biol. Act.” value came out at 1.70.

Consider `CC(=O)O[C@]1(C(=O)COC(=O)CN)CCC2C3CCC4=CC(=O)CCC4=C3C(c3ccc(N(C)C)cc3)C[C@@]21C` (stereo partly drawn) [CDB-4306, 21-glycinate-17α-acetoxy-11β-(4 N,N-dimethylaminophenyl)-19-norpregna-4,9-diene-3,20-dione], for which the rbPR/rbGR in experiment [1] is reported as 5.90. For the same molecule, in experiment [2], the “rabbit Biol. Act.” value came out at 0.95. `CC(=O)O[C@]1(C(=O)CSC#N)CCC2C3CCC4=CC(=O)CCC4=C3C(c3ccc(N(C)C)cc3)C[C@@]21C` (stereo partly drawn) [CDB-4352, 21-cyanothio-17α-acetoxy-11β-(4 N,N-dimethylaminophenyl)-19 norpregna-4,9-diene-3,20-dione]: in experiment [1], the rbPR/rbGR amounted to 4.21. In experiment [2], the “rabbit Biol. Act.” value was determined as 0.57.

With `C=COCC(=O)[C@@]1(OC(C)=O)CCC2C3CCC4=CC(=O)CCC4=C3C(c3ccc(N(C)C)cc3)C[C@@]21C` (stereo partly drawn) [CDB-4361, 21-vinyl ether-17α-acetoxy-11β-(4 N,N-dimethylaminophenyl)-19-norpregna-4,9-diene-3,20-dione], the rbPR/rbGR in experiment [1] amounted to 7.20. For the same molecule, the “rabbit Biol. Act.” value in experiment [2] is 3.03.

For the origin of these results see US20090118253A1, “COMPOSITIONS AND METHODS FOR TREATING DYSFUNCTIONAL UTERINE BLEEDING” (REPROS THERAPEUTICS INC., priority 2007, published 2009).
